We go through five compounds from patent US12391648B2, “Pyridyloxy thioester derivative and preparation method therefor, herbicidal composition, and application” (Qingdao Kingagroot Chemical Compound Co., Ltd., priority 2018, dated 2025).

Assay type in all cases: in vivo
The test system of one data set is Galium spurium. Description: Post-emergence test experiment (Table 3, 1000 g/ha). As to conditions: post-emergence spray, after 3 weeks, fresh weight inhibition. A digest of the protocol: (§1)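 Weed seeds sown in soil-filled pots in greenhouse, sprayed at 2-3 leaf stage (2 weeks after sowing) with compound in acetone/tween-80 plus methyl oleate emulsible concentrate (1.5 L/ha) diluted in water. Fresh-weight growth inhibition scored after 3 weeks on 0-5 scale (5: >85%, 0: <5%).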

In a further data set the test system is Leptochloa chinensis. The description is as above. As to conditions: post-emergence spray, after 3 weeks, fresh weight inhibition. A digest of the protocol: as §1
In another data set the test system is Digitaria sanguinalis. The data set is described as above. Conditions: post-emergence spray, after 3 weeks, fresh weight inhibition. The essentials:
as §1

In data set [1] the test system is Monochoria vaginalis. Described as above. As to conditions: post-emergence spray, after 3 weeks, fresh weight inhibition. A digest of the protocol: as §1
A further data set relates to Abutilon theophrasti. The data set is described as above. As to conditions: post-emergence spray, after 3 weeks, fresh weight inhibition. The essentials:
as §1

In a further data set the test system is Setaria viridis. The data set is described as above. Conditions: post-emergence spray, after 3 weeks, fresh weight inhibition. The essentials:
as §1

Data set [2] deals with Monochoria vaginalis. The data set can be described thus: Weed control effect evaluation in rice field. Conditions: 1000 g/ha, paddy water application at 0.5 leaf stage, 14 days after treatment, weeds resistant to pyrazosulfuron-ethyl and penoxsulam. The text has this: (§2) The activity level standard of harmful plants destruction (i. e. growth inhibition rate) is as follows: • Level 5: the growth inhibition rate is greater than 85%; • Level 4: the growth inhibition rate is equal to or greater than 60% and less than 85%; • Level 3: the growth inhibition rate is equal to or greater than 40% and less than 60%; • Level 2: the growth inhibition rate is equal to or greater than 20% and less than 40%; • Level 1: the growth inhibition rate is equal to or greater than 5% and less than 20%; • Level 0: the growth inhibition rate is less than 5%;
(§3) Transplanted rice safety evaluation and weed control effect evaluation in rice field:
Rice field soil was loaded into a 1/1,000,000 ha pot. The seeds of Monochoria vaginalis were sowed and gently covered with soil, then left to stand still in greenhouse in the state of 0.5-1 cm of water storage. It was kept at 3-4 cm of water storage thereafter. The weeds were treated by dripping the WP or SC water diluents prepared according to the common preparation method of the compounds of the present invention with pipette homogeneously to achieve specified effective amount when Monochoria vaginalis reached 0. 5 leaf stage.
(§4) The fertility condition of Monochoria vaginalis 14 days and rice 21 days after the treatment of the compound of the invention with the naked eye.
Note: The seeds of Monochoria vaginalis were collected from Heilongjing Province of China.

The next data set relates to rice (japonica rice). The data set can be described thus: Transplanted rice safety evaluation. As to conditions: 1000 g/ha, transplanted 3-leaf stage japonica rice, treated 5 days after transplantation, 21 days after treatment.
Text: as §2, §3
In addition, the rice field soil that loaded into the 1/1,000,000 ha pot was leveled to keep water storage at 3-4 cm depth. The 3-leaf stage rice (japonica rice) was transplanted at 3 cm of transplanting depth the next day. The compound of the present invention was treated by the same way after 5 days of transplantation.
as §4

A further data set deals with Indica rice. The data set can be described thus: Post-emergence test experiment (Table 4), crop safety. As to conditions: 600 g/ha active ingredient, plus water 450 kg/ha, after 3 weeks.
Text: as §2
(§5) The above described growth inhibition rate is fresh weight inhibition rate.
(§6) Post-emergence test experiment: Monocotyledonous and dicotyledonous weed seeds and main crop seeds (i. e. wheat, corn, rice, soybean, cotton, oilseed, millet and sorghum.) were put into a plastic pot loaded with soil. Then covered with 0.5-2 cm soil, the seeds were allowed to grow in good greenhouse environment. The test plants were treated at 2-3 leaf stage 2 weeks after sowing. The test compounds of the invention were dissolved with acetone respectively, then added with tween-80, and using 1.5 liters per hectare of an emulsible concentrate of methyl oleate as a synergist, and diluted by certain amount of water to certain concentration. The solution was sprayed to the plants with a sprayer. Then the plants were cultured for 3 weeks in the greenhouse, and the experiment result of weed controlling effect after 3 weeks was listed in tables 3-4.
(§7) […] Echinochloa crusgalli and Cyperus iria were collected from Ningxia Hui Autonomous Region of China, which had evolved resistance to ALS inhibiting herbicides. • Control compound A:

The subject of another data set is Japonica rice. The description is as above. Conditions: 600 g/ha active ingredient, plus water 450 kg/ha, after 3 weeks.
Text: as §2, §5, §6, §7

Data set [3] relates to ALS resistant Echinochloa crusgalli. Description: Post-emergence test experiment (Table 4), weed control. Conditions: 600 g/ha active ingredient, plus water 450 kg/ha, after 3 weeks.
Text: as §2, §5, §6, §7

Data set [4] concerns ALS resistant Cyperus iria. The data set is described as above. Conditions: 600 g/ha active ingredient, plus water 450 kg/ha, after 3 weeks.
Text: as §2, §5, §6, §7

In the case of `CSC(=O)C(C)Oc1ncc(Cl)c(N)c1Cl` (stereo not drawn) [Compound 3], in the data set on Galium spurium, the “Activity level (growth inhibition rate) Galium spurium” value is 5 (Level 5: the growth inhibition rate is greater than 85%). The “Activity level (growth inhibition rate) Leptochloa chinensis” value with Leptochloa chinensis is listed as 5 (Level 5: the growth inhibition rate is greater than 85%). In the data set with Digitaria sanguinalis, the “Activity level (growth inhibition rate) Digitaria sanguinalis” value is listed as 5 (Level 5: the growth inhibition rate is greater than 85%). Moreover, the “Activity level (growth inhibition rate) Monochoria Vaginalis” value in the data set on Monochoria vaginalis [1] is 5 (Level 5: the growth inhibition rate is greater than 85%). The “Activity level (growth inhibition rate) Abutilon theophrasti” value with Abutilon theophrasti is listed as 5 (Level 5: the growth inhibition rate is greater than 85%). Further, the “Activity level (growth inhibition rate) Setaria viridis” value with Setaria viridis is reported as 5 (Level 5: the growth inhibition rate is greater than 85%). Further, the “Monochoria Vaginalis, activity standard level 0-5” value with Monochoria vaginalis [2] is listed as 5 (Level 5: the growth inhibition rate is greater than 85%). For the same compound, the “Rice, activity standard level 0-5 (safety)” value (from here on “Rice … (safety)”) in the data set with rice (japonica rice) was 0 (Level 0: the growth inhibition rate is less than 5%). The “Indica rice, activity level (growth inhibition rate)” value in the data set on Indica rice is on record as 0 (Level 0: the growth inhibition rate is less than 5%). The “Japonica rice, activity level (growth inhibition rate)” value in the data set on Japonica rice was 0 (Level 0: the growth inhibition rate is less than 5%). Further, in data set [3], the “ALS resistant Echinochloa crusgalli, activity level (growth inhibition rate)” value is listed as 5 (Level 5: the growth inhibition rate is greater than 85%). Also, in data set [4], the “ALS resistant Cyperus iria, activity level (growth inhibition rate)” value is 5 (Level 5: the growth inhibition rate is greater than 85%).

Turning to `CSC(=O)C(C)Oc1nc(F)c(Cl)c(N)c1Cl` (stereo not drawn) [Compound 4], in the data set on Galium spurium, the “Activity level (growth inhibition rate) Galium spurium” value is reported as 5 (Level 5: the growth inhibition rate is greater than 85%). Also, the “Activity level (growth inhibition rate) Leptochloa chinensis” value in the data set on Leptochloa chinensis is 5 (Level 5: the growth inhibition rate is greater than 85%). Moreover, the “Activity level (growth inhibition rate) Digitaria sanguinalis” value with Digitaria sanguinalis is given as 5 (Level 5: the growth inhibition rate is greater than 85%). Besides, the “Activity level (growth inhibition rate) Monochoria Vaginalis” value in the data set with Monochoria vaginalis [1] was 5 (Level 5: the growth inhibition rate is greater than 85%). For the same compound, the “Activity level (growth inhibition rate) Abutilon theophrasti” value in the data set with Abutilon theophrasti is reported as 5 (Level 5: the growth inhibition rate is greater than 85%). Besides, in the data set with Setaria viridis, the “Activity level (growth inhibition rate) Setaria viridis” value was 5 (Level 5: the growth inhibition rate is greater than 85%). Moreover, the “Monochoria Vaginalis, activity standard level 0-5” value in the data set with Monochoria vaginalis [2] is reported as 5 (Level 5: the growth inhibition rate is greater than 85%). Further, the “Rice … (safety)” value with rice (japonica rice) is 0 (Level 0: the growth inhibition rate is less than 5%). In addition, the “Indica rice, activity level (growth inhibition rate)” value in the data set on Indica rice is recorded as 0 (Level 0: the growth inhibition rate is less than 5%). Further, the “Japonica rice, activity level (growth inhibition rate)” value in the data set on Japonica rice is recorded as 0 (Level 0: the growth inhibition rate is less than 5%). The “ALS resistant Echinochloa crusgalli, activity level (growth inhibition rate)” value in [3] is recorded as 5 (Level 5: the growth inhibition rate is greater than 85%). Further, the “ALS resistant Cyperus iria, activity level (growth inhibition rate)” value in data set [4] is given as 5 (Level 5: the growth inhibition rate is greater than 85%).

Turning to `CSC(=O)C(C)Oc1nc(F)c(C)c(N)c1C` (stereo not drawn) [Compound 7], the “Activity level (growth inhibition rate) Galium spurium” value with Galium spurium is 5 (Level 5: the growth inhibition rate is greater than 85%). Further, in the data set on Leptochloa chinensis, the “Activity level (growth inhibition rate) Leptochloa chinensis” value is reported as 5 (Level 5: the growth inhibition rate is greater than 85%). Moreover, the “Activity level (growth inhibition rate) Digitaria sanguinalis” value with Digitaria sanguinalis is 5 (Level 5: the growth inhibition rate is greater than 85%). Besides, in the data set with Monochoria vaginalis [1], the “Activity level (growth inhibition rate) Monochoria Vaginalis” value is 5 (Level 5: the growth inhibition rate is greater than 85%). Moreover, in the data set with Abutilon theophrasti, the “Activity level (growth inhibition rate) Abutilon theophrasti” value is recorded as 5 (Level 5: the growth inhibition rate is greater than 85%). In the data set on Setaria viridis, the “Activity level (growth inhibition rate) Setaria viridis” value is reported as 5 (Level 5: the growth inhibition rate is greater than 85%). Moreover, in the data set with Monochoria vaginalis [2], the “Monochoria Vaginalis, activity standard level 0-5” value is 5 (Level 5: the growth inhibition rate is greater than 85%). The “Rice … (safety)” value with rice (japonica rice) is 0 (Level 0: the growth inhibition rate is less than 5%). The “Indica rice, activity level (growth inhibition rate)” value in the data set on Indica rice is recorded as 0 (Level 0: the growth inhibition rate is less than 5%). Moreover, the “Japonica rice, activity level (growth inhibition rate)” value in the data set with Japonica rice is 0 (Level 0: the growth inhibition rate is less than 5%). Further, the “ALS resistant Echinochloa crusgalli, activity level (growth inhibition rate)” value in data set [3] is listed as 5 (Level 5: the growth inhibition rate is greater than 85%). For the same compound, in [4], the “ALS resistant Cyperus iria, activity level (growth inhibition rate)” value is recorded as 5 (Level 5: the growth inhibition rate is greater than 85%).

For the compound `CCSC(=O)C(C)Oc1nc(F)c(Cl)c(N)c1Cl` (stereo not drawn) [Compound 66], in the data set with Galium spurium, the “Activity level (growth inhibition rate) Galium spurium” value is listed as 5 (Level 5: the growth inhibition rate is greater than 85%). In the data set on Leptochloa chinensis, the “Activity level (growth inhibition rate) Leptochloa chinensis” value was 5 (Level 5: the growth inhibition rate is greater than 85%). Also, in the data set with Digitaria sanguinalis, the “Activity level (growth inhibition rate) Digitaria sanguinalis” value was 5 (Level 5: the growth inhibition rate is greater than 85%). The “Activity level (growth inhibition rate) Monochoria Vaginalis” value in the data set with Monochoria vaginalis [1] is listed as 5 (Level 5: the growth inhibition rate is greater than 85%). Moreover, in the data set on Abutilon theophrasti, the “Activity level (growth inhibition rate) Abutilon theophrasti” value is recorded as 5 (Level 5: the growth inhibition rate is greater than 85%). In addition, in the data set with Setaria viridis, the “Activity level (growth inhibition rate) Setaria viridis” value is recorded as 5 (Level 5: the growth inhibition rate is greater than 85%). Also, the “Monochoria Vaginalis, activity standard level 0-5” value with Monochoria vaginalis [2] is 5 (Level 5: the growth inhibition rate is greater than 85%). Besides, the “Rice … (safety)” value in the data set with rice (japonica rice) was 0 (Level 0: the growth inhibition rate is less than 5%). Moreover, the “Indica rice, activity level (growth inhibition rate)” value in the data set on Indica rice was 0 (Level 0: the growth inhibition rate is less than 5%). Further, the “Japonica rice, activity level (growth inhibition rate)” value in the data set on Japonica rice was 0 (Level 0: the growth inhibition rate is less than 5%). In addition, the “ALS resistant Echinochloa crusgalli, activity level (growth inhibition rate)” value in data set [3] was 5 (Level 5: the growth inhibition rate is greater than 85%). Also, the “ALS resistant Cyperus iria, activity level (growth inhibition rate)” value in [4] is on record as 5 (Level 5: the growth inhibition rate is greater than 85%).

Regarding `CCCCC(CC)CSC(=O)C(C)Oc1nc(F)c(Cl)c(N)c1Cl` (stereo not drawn) [Compound 74], the “Activity level (growth inhibition rate) Galium spurium” value with Galium spurium is 5 (Level 5: the growth inhibition rate is greater than 85%). Moreover, the “Activity level (growth inhibition rate) Leptochloa chinensis” value with Leptochloa chinensis was 5 (Level 5: the growth inhibition rate is greater than 85%). Also, in the data set on Digitaria sanguinalis, the “Activity level (growth inhibition rate) Digitaria sanguinalis” value is 5 (Level 5: the growth inhibition rate is greater than 85%). In the data set with Monochoria vaginalis [1], the “Activity level (growth inhibition rate) Monochoria Vaginalis” value is reported as 5 (Level 5: the growth inhibition rate is greater than 85%). The “Activity level (growth inhibition rate) Abutilon theophrasti” value in the data set on Abutilon theophrasti is reported as 5 (Level 5: the growth inhibition rate is greater than 85%). The “Activity level (growth inhibition rate) Setaria viridis” value in the data set on Setaria viridis is given as 5 (Level 5: the growth inhibition rate is greater than 85%). For the same compound, the “Monochoria Vaginalis, activity standard level 0-5” value with Monochoria vaginalis [2] is reported as 5 (Level 5: the growth inhibition rate is greater than 85%). Further, the “Rice … (safety)” value in the data set with rice (japonica rice) is listed as 0 (Level 0: the growth inhibition rate is less than 5%). Besides, the “Indica rice, activity level (growth inhibition rate)” value in the data set on Indica rice is on record as 0 (Level 0: the growth inhibition rate is less than 5%). Besides, in the data set on Japonica rice, the “Japonica rice, activity level (growth inhibition rate)” value is 0 (Level 0: the growth inhibition rate is less than 5%). Moreover, the “ALS resistant Echinochloa crusgalli, activity level (growth inhibition rate)” value in [3] was 5 (Level 5: the growth inhibition rate is greater than 85%). Also, the “ALS resistant Cyperus iria, activity level (growth inhibition rate)” value in data set [4] was 5 (Level 5: the growth inhibition rate is greater than 85%).
